Laboratory results as given in patent US5679671A, “Amino acid derivative” (Eisai Co., Ltd., priority 1993, dated 1997).

Columns and labels:
[1] = target: T1, ACE (Rattus norvegicus, UniProt P47820); assay: ACE inhibition activity (Experiment F-1); type: biochemical; conditions: rat lung membrane fraction, pH 8.3
T1 construct: membrane fraction prepared from rat lung; from tissue; host or cells: rat lung, membrane fraction (method of Wu-Wong et al.)
T1 sequence (P47820 36-1313): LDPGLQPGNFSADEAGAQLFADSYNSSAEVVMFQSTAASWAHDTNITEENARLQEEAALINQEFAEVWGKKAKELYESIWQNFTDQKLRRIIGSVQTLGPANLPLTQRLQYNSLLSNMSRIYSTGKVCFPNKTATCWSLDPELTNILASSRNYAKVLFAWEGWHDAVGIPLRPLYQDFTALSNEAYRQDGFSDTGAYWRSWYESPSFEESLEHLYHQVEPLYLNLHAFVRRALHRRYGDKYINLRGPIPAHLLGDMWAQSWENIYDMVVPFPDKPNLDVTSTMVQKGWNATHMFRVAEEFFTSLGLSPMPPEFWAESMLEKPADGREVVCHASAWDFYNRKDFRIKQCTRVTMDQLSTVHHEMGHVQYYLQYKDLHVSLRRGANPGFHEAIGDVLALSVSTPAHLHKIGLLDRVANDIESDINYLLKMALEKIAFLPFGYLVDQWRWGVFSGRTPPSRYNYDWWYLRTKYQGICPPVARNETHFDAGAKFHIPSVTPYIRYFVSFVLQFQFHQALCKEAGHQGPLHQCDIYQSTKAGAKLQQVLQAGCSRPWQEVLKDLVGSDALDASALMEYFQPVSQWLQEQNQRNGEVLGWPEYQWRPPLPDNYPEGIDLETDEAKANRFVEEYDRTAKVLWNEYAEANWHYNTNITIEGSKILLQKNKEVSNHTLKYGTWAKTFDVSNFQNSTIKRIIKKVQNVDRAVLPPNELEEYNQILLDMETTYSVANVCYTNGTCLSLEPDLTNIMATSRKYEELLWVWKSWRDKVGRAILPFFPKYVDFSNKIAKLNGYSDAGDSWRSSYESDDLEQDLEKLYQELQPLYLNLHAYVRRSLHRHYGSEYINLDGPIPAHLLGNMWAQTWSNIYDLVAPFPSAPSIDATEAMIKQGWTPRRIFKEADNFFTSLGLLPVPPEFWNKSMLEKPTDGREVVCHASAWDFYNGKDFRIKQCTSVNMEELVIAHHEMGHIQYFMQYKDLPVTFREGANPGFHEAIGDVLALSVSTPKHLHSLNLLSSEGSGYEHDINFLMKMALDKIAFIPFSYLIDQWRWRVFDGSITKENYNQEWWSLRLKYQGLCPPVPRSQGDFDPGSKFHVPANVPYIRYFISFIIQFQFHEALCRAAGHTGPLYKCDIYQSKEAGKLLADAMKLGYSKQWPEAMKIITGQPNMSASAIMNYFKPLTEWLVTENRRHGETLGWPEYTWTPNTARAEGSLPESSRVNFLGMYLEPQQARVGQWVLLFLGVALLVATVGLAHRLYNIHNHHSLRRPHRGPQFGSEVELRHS
Procedure: As a source of the enzyme ACE, a membrane fraction prepared from rat lung in accordance with the method of Wu-Wong et al. (Characterization of Endthelin Converting Enzyme in Rat Lung., Jinshyum R. Wu-Wong, Gerald P. Budzik, Edward M, Devine and Terry J. Opgenorth, Biochem. Biophys. Res. Commun., 1990, 171, 1291-1296.) was used. The ACE activity was determined with the use of a modification (modified to a borate buffer pH 8.3) of the method of Cushman and Cheung (Spectrophotometric Assay and Properties of the Angiotensin-Converting Enzyme of Rabbit Lung., Cushman D. W. and Cheung H. S., 1971, 20, 1637-1648.). Now the procedure will be briefly described.
In the presence of ACE, the hippurate liberated from hippuryl-histidyl-leucine (Hippuryl-His-Leu (Peptide Institute Inc., Japan)) was extracted with ethyl acetate and then the absorbance was measured at a wavelength of 228 nm.
With respect to the NEP inhibition activity and the ACE inhibition activity, the inhibitor was added to the assay systems of both enzyme activities as described above in such a manner as to give the final concentrations of 1, 3, 10, 30, 100, 300 and 1000 inhibition curves were prepared, and then the concentration at which 50% inhibition was achieved was taken as IC50.

[2] = test system: 2K-1C-Goldblatt Hypertensive Rat; assay: Hypotensive effect on 2K-1C-Goldblatt hypertensive rat, oral (Experiment C-3); type: in vivo, male Sprague Dawley rats
Procedure: A silver clip with a slit of 0.25 mm in width was fitted into the left renal artery of each of male Sprague Dawley rats (aged 6 to 7 weeks) and, after three weeks, rats showing a systolic blood pressure of 180 mmHg or above were employed. One to several drops of a 1N aqueous solution of sodium hydroxide were dropped into purified water and each test compound was dissolved or emulsified therein to prepare it at a dose of 5 ml/kg, followed by orally administration. After keeping the rats in an incubator at 45° C. for 5 to 10 minutes, the systolic blood pressure was measured by the indirect method of tail artery plethysmography. As a comparative compound, [4S-[4α,7α(R*),12bβ]]-7-[(1-oxo-2-(S)-thio-3-phenyl-propyl)amino[-1,2,3,4,6,7,8,12b-octahydro-6-oxo-pyrido[2,1-a][2]benzazepine-4-carboxylic acid was used.

| SMILES | IC50 [1] [nM] | Decrease (%) in blood pressure after 6 hrs. ([2]; 3 mg/kg oral) [%] | Decrease (%) in blood pressure after 1-3 hrs. ([2]; 1 mg/kg oral, after 2 hrs) [%] | Decrease (%) in blood pressure after 6 hrs. ([2]; 1 mg/kg oral) [%] | other results |
| --- | --- | --- | --- | --- | --- |
| O=C(N[C@H]1Cc2ccccc2[C@H]2CCC[C@@H](C(=O)O)N2C1=O)[C@@H](S)Cc1ccccc1 [Comp. cpd. E-1, [4S-[4α,7α(R*),12bβ]]-7-[(1-oxo-2-(S)-thio-3-phenyl-propyl)amino]-1,2,3,4,6,7,8,12b-octahydro-6-oxopyrido-[2,1-a][2]benzazepine-4-carboxylic acid, reference compound] | 10.6 | 12.9 |  |  | Decrease (%) in blood pressure after 1-3 hrs. ([2]; 3 mg/kg oral, after 1 hr): 15.4%; Decrease (%) in blood pressure after 1-3 hrs. ([2]; 10 mg/kg oral, after 1 hr): 14.2%; Decrease (%) in blood pressure after 6 hrs. ([2]; 10 mg/kg oral): 19.1% |
| CC[C@H](C)[C@H](S)C(=O)NC1CCc2ccccc2N(CC(=O)O)C1=O (stereo partly drawn) [Example A-9, 1-Carboxymethyl-3-[(2S,3S)-2-mercapto-3-methylvarelylamino]-1H-[1]benzazepin-2-one] |  |  | 17.3 | 20.8 |  |
| CC[C@H](C)[C@H](S)C(=O)N[C@H]1CCC[C@H]2SC[C@@H](C(=O)O)N2C1=O [Example C-8, [3R-[3α,6α,(S*),9aβ]]-6-[[(2S,3S)-3-methyl-1-oxo-2-thiopentyl]amino]-octahydro-5-oxothiazol[3,2-a]-azepine-3-carboxylic acid] | 5.2 |  | 28.4 | 25.3 |  |
| CC[C@H](C)[C@H](S)C(=O)N[C@H]1Cc2ccc(-c3ccccc3)cc2[C@H]2CCC[C@@H](C(=O)O)N2C1=O [Example C-14, [4S-[4α,7α(R*),12bβ]]-7-[[(2S,3S)-3-Methyl-1-oxo-2-thiopentyl]amino]-6-oxo-11-phenyl-1,2,3,4,6,7,8,12b-octahydropyrido[2,1-a][2]benzazepine-4-carboxylic acid] |  | 22.2 |  | 12.7 | Decrease (%) in blood pressure after 1-3 hrs. ([2]; 1 mg/kg oral, after 3 hrs): 13.4%; Decrease (%) in blood pressure after 1-3 hrs. ([2]; 3 mg/kg oral, after 3 hrs): 25.9% |
| O=C(N[C@H]1CCC[C@H]2SC[C@@H](C(=O)O)N2C1=O)[C@@H](S)Cc1ccccc1 [Example F-17, [3R-[3α,6α(S*),9aβ]]-6-[[(S)-1-Oxo-2-thio-3-phenylpropyl]amino]-octahydro-5-oxothiazol[3,2-a]-azepine-3-carboxylic acid] | 13.4 |  |  |  |  |
